Marks after values point to notes of the source that are not given here.
Key:
CB2 = assay: Real-time RT-PCR gene expression in CNS of MOG induced EAE: CB2; assay type: in vivo, mouse; settings: 40 mg/kg p.o., day 31, over naive animals
Procedure: (§1) Total RNA is prepared using SV total RNA isolation system (Promega). The brains and spinal cords, which were removed on day 31 from five animals treated with vehicle (i.e. untreated) or 40 mg/kg p.o. of compound 18F (i.e. treated) in the MOG-induced EAE study, were homogenized in lysis buffer. The lysates were transferred to an RNA isolation column, treated with DNAse, washed and eluted according to kit instructions. RNA concentrations were determined using GeneQuant II (Pharmacia-Amersham). Complementary DNA (cDNA) was synthesized from total RNA using […] II reverse transcriptase (Life Technologies). […] Quantitative real-time RT-PCR included 1 μl of the cDNA, 300 nM of the appropriate forward and reverse primers (according to the gene monitored) and 7.5 μl of the reaction mix containing buffer, nucleotides, Taq polymerase and SYBER green (SYBER Green master mix, Applied Biosystems), in a total reaction volume of 15 μl. […] During each annealing step, the amount of the amplified product was measured by the fluorescence of the double strand DNA binding dye, SYBER Green. The cycle of threshold (CT), representing the PCR cycle at which an increase in fluorescence above a baseline signal can be first detected, was determined for each product. […] Results were expressed as fold increase of gene expression in treated or untreated animals above the naive animals. […]

CB2 receptor = CB2 receptor (Homo sapiens, UniProt P34972); assay: CB2 binding assay
MCP-1 = assay: Real-time RT-PCR gene expression in CNS of MOG induced EAE: MCP-1; assay type: in vivo, mouse; settings: 40 mg/kg p.o., day 31, over naive animals
Procedure: as §1

ICR male mice = assay: Tetrad Assay (safety)
[1] = tested on: chronic constriction induced neuropathic pain; assay: Chronic constriction induced neuropathic pain (Von Frey filaments); assay type: in vivo, Sprague-Dawley rats
Description: A peripheral monopathy was induced in the right hind limb of rats following a chronic constriction of the sciatic nerve according to Bennet et al. [Bennet, G. J. & Xie, Y-K., Pain 33: 87-107, 1988]. The development of mechanical allodyna was monitored using an established behavioral test (Von Frey filaments).
Pre-surgery baseline values were ascertained as the mean of 2 pre-surgery values. Once the baseline values had been established, the animals were surgically prepared by constricting the right sciatic nerve with 4 chromic cat gut loose ligatures. On day 11 post-operation, the animals that have developed mechanical allodyna were arbitrarily allocated to the various treatment groups based on the pre-surgery values.
The design was randomized, performed in a masked fashion as to whether drug or vehicle is being given. The animals, male Sprague-Dawley rats (average body weight 240-290 g, Harlan, Israel), were allowed to acclimatize to the behavioral testing equipment prior to testing. […] The filaments were applied in ascending order starting with the weakest force and the withdrawal threshold for both the ipsilateral and contralateral hind paws was evaluated. […] The withdrawal threshold is defined as being the lowest force of two or more consecutive Von Frey's filaments to elicit a reflex withdrawal response (i.e. a brief paw flick) and is measured in grams.

Sequence of CB2 receptor (P34972 whole entry): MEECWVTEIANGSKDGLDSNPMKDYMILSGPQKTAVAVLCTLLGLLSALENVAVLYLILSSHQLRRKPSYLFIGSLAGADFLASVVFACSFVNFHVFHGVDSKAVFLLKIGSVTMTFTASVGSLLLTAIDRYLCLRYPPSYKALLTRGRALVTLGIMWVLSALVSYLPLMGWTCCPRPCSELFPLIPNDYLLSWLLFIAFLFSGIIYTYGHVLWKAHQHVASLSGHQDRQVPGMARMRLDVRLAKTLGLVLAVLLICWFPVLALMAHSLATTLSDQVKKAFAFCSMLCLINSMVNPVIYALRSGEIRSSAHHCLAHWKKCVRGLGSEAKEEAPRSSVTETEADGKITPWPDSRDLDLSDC

In the case of CCCCCCC(C)(C)c1cc(O)c([C@H]2CC(=O)C3CC2C3(C)C)c(OC(=O)/C=C/C(=O)O)c1 (single isomer, unassigned; (-)) [Compound 18F, (−)-4-{4-[1,1-Dimethylheptyl]-2-fumarate-6-hydroxy-phenyl}-6,6-dimethyl-bicyclo[3.1.1]heptan-2-one], the “Fold gene expression CB2, Spinal Cord, Treated” value (CB2) is reported as 2 fold, the “Fold gene expression CB2, Brain, Treated” value (CB2; untreated −13) is reported as 1* fold and the IC50 (CB2 receptor) is reported as 9 nM. For the same molecule, the “Fold gene expression MCP-1, Brain, Treated” value (MCP-1) was 5.5 fold, the “Fold gene expression MCP-1, Spinal Cord, Treated” value (MCP-1; untreated 19) was 68 fold and the body temperature (ICR male mice; 30, 60, 80 and 100 mg/kg p.o.) was “transient hypothermia”. The “time to regain normothermia” value (ICR male mice; 30 and 60 mg/kg p.o.) was at most 24 h, the “body temperature below baseline at the end of follow-up period” value (ICR male mice; 80 and 100 mg/kg p.o.) was 2 °C and the “safety at therapeutically effective doses” value (ICR male mice; doses of up to 60 mg/kg p.o.) was “found to be safe”. For the same molecule, the “catalepsy and spontaneous or forced locomotor activity” value (ICR male mice; p.o., up to maximal dose tested of 100 mg/kg) was “no effect”, the “effect on neuropathic pain” value ([1]; 20 mg/kg p.o.) was “little effect” and the “effect on neuropathic pain” value ([1]; 40 mg/kg p.o.) was “as strong as 5 mg/kg morphine administered subcutaneously”.

— US20090068143A1, “ORALLY EFFECTIVE C[…]” (priority 2005, published 2009)
